This note sets out measurements from patent US10954549B2, “Detection and classification of an anticoagulant using a clotting assay” (Haemonetics Corporation, priority 2014, dated 2021).

Assay [1] relates to blood from healthy volunteers. The assay can be described thus: Thromboelastography R time of spiked blood in the presence of the ecarin reagent. It is filed as biochemical, human. How it is done: Blood from healthy volunteers known not to be taking any oral anticoagulant and without any other significant health issues are analyzed using the FXa or the Ecarin reagent in a TEG® hemostasis analyzer.
The ecarin reagent is used to classify the type of anticoagulant. The R-time from the Ecarin assay is used to differentiate between the two available classes (Direct thrombin inhibitors and anti-Xa inhibitors). This ecarin reagent may be used in combination with the results from the FXa reagent to make a decision. A reference range will be generated from a sample healthy volunteer population (not on any drug) for this reagent.
The R-time generated from multiple donors was used to construct a reference range. Blood was spiked with either direct thrombin inhibitors or anti-Xa(s) at different concentrations and analyzed using the FXa reagent or the Ecarin reagent. The drug concentrations chosen represent the published therapeutic ranges for these two classes of drugs. This assay was repeated in multiple donors to account for possible donor variations.
The R time (in minutes) was compared to the R time obtained from donor blood with no oral anticoagulant (who is known not to be administered with an anticoagulant) treated with the ecarin reagent and measured using thromboelastography.
The R time (in minutes) was compared to the R time obtained from donor blood with no oral anticoagulant (i.e., taken from a patient who is known not to be administered with an anticoagulant) treated with the ecarin reagent and measured using thromboelastography.

The next assay concerns citrated whole blood. The assay can be described thus: RapidTEG (rTEG) test of blood spiked with anticoagulant. In kind it is biochemical, human. The following applies: for TEG ACT parameter versus control group: all tested concentrations (except rivaroxaban 22 ng/mL). An excerpt: The TEG clotting assay was used to determine if low, normal, and high doses of dabigatran, rivaroxaban, and apixaban could be detected in blood spiked with these compounds. Three oral anticoagulants (OAC), namely dabigatran, rivaroxaban, and apixaban, were spiked into blood obtained from 14 healthy volunteer human donors. For each OAC tested, citrated blood from three donors was spiked with three different concentrations of the active drug (i.e., the compound). The spiked blood samples and control samples spiked with diluent were tested with the TEG® 5000 Thrombelastograph® Hemostasis Analyzer (Haemonetics Corporation, Braintree, Mass., USA) using the Kaolin and RapidTEG® reagents (Haemonetics). Each sample was run in triplicate. All samples were tested with and without ecarin (purchased from Enzyme Research Laboratories, South Bend, IN). This study was IRB approved and all donors were over 18 and signed informed consent forms.
The RapidTEG (rTEG) test incorporated both tissue factor and kaolin to generate the conventional kaolin parameters as well as the TEG-ACT parameter, which is measured in seconds. The TEG-ACT is equivalent to the Activated Clotting Time (see Chavez J. J. et al., Anesth. Analg. 99:1290-1294, 2004) and has a normal range of 86 to 118 seconds. A prolonged TEG-ACT time indicates slower clot formation. In addition, velocity curves derived from the above mentioned kaolin and rTEG tests were plotted using TEG software. These curves represent the speed of clot propagation (MRTG, Maximum Rate of Thrombus Generation; and TMRTG, Time to Maximum Rate of Thrombus Generation) (see FIG. 3B).
For the RapidTEG (rTEG) test, the reagent was reconstituted with 20 μL diluent water, and allowed to stand for 5 minutes per manufacturer instructions. Ten μL of this reconstituted reagent was added to the TEG cup with 20 μl 0.2M CaCl2 for recalcification.
340 μL of the citrated blood sample was added to the cup with these two reagents, and the contents of the cup were mixed 3 times by drawing the contents of the cup up into the pipette and redispensing it into the cup. The test was started immediately after mixing and allowed to run until the MA parameter had defined. The rTEG with ecarin test was performed as the rTEG test above, using 20 μL of an ecarin/CaCl2 solution (0.16M CaCl2; 19EU/mL ecarin).

Assay [2] concerns blood from a single human volunteer. The assay can be described thus: Detection time (R time with Factor Xa) in volunteer blood before and after oral anticoagulant. It is filed as in vivo. The following applies: 2 hours 30 minutes after 20 mg oral. On the procedure: (§1) Blood from a single human volunteer was analyzed using thromboelastography with Factor Xa and ecarin before and after the volunteer was orally administered an anticoagulant.
(§2) For these studies, the normal ranges for the particular reagent (i.e., Factor Xa or ecarin) were determined using multiple donors known not to be taking any anticoagulant.
(§3) The human volunteer was known not to be taking (i.e., was not being administered) an anticoagulant. In this example, blood was taken from the volunteer before the volunteer was administered any anticoagulant. This is the “before” blood component sample. The volunteer was orally administered 20 mg rivaroxaban, an anti-Factor Xa anticoagulant. Two hours and thirty minutes after oral administration of the rivaroxaban, blood was drawn again from the volunteer. This is the “after” blood component sample.
(§4) The “before” and “after” samples were analyzed using thromboelastography in the presence of Factor Xa or in the presence of ecarin. When the R time is determined in the presence of Factor Xa, that time is called the detection time. When the R time is determined in the presence of ecarin, that time is called the classification time.

Assay [3] has the same test system. The assay can be described thus: Classification time (R time with ecarin) in volunteer blood before and after oral anticoagulant. The settings on record: 2 hours 30 minutes after 20 mg oral. It is filed as in vivo. On the procedure: as §1, §2, §3, §4
The next assay deals with porcine plasma. The assay can be described thus: TEG 6S DTI channel R-time, porcine experimental trauma model. In kind it is in vivo. The settings on record: pre and post trauma; baseline 3.4±0.6 min. On the procedure:
The TEG®6S system (Haemonetics Corp., Braintree, Mass.) is based on viscoelasticity measurements using resonance frequency and disposable multi-channel microfluidic cartridges. Blood and plasma from healthy volunteers were spiked with dabigatran in the therapeutic range (in increasing concentrations) and tested with an OAC cartridge with an ecarin based, direct thrombin inhibitor (DTI) channel. This channel was also evaluated with porcine plasma from an experimental trauma model (n=6) where dabigatran levels were measured with dilute TT (Hemoclot®). TEG 6s R-time (reaction time) was correlated to the drug levels.

`O=C(NC[C@H]1CN(c2ccc(N3CCOCC3=O)cc2)C(=O)O1)c1ccc(Cl)s1` [rivaroxaban, Rivaroxaban]: in assay [1] (50-350 ng/ml, ecarin), the “R time versus reference range of approximately 1 to 4.1 minutes” value was “within the reference range”. In addition, in the assay on citrated whole blood, the “K, α and MRTG parameters versus control or between studied concentrations” value was “did not show any statistical difference”; the “TEG ACT parameter, distinguishing between concentrations” value is reported as “good dose response curve”; the “TMRTG parameter sensitivity to presence of drug” value is reported as “sensitive to the presence”; the “TEG ACT parameter versus control group” value is “significantly different”. In addition, in the assay with citrated whole blood (all studied concentrations), the “MA values versus control” value was “did not change”. In addition, in the assay with citrated whole blood (medium and higher concentrations), the “ACT time versus non-spiked blood sample” value is listed as “significantly higher”. Besides, in assay [2], the “"after" detection time (R time, FXa reagent)” value is “approximately 4.4 minutes” and the “"after" detection time relative to the reference range R time of 1.5 minutes” value is recorded as 2.93 times. The “R of "after" blood versus Ecarin reference range (approximately 4.1 minutes upper boundary)” value in assay [3] is “within the Ecarin reference range”.

For dabigatran, the “R time versus untreated R time of unspiked donor blood” value in assay [1] (50 ng/ml, donor 126, ecarin reagent) was “two times longer”. Further, the “R time relative to the reference range of 3.1 minutes” value in assay [1] (50 ng/ml, donors 117, 127, and 146, ecarin) was “at least 1.25 times”. In assay [1] (150 ng/ml, all four donors, ecarin), the “R time relative to the collective reference range of 3.1 minutes” value is on record as “at least 1.25 times”. In the assay with citrated whole blood, the “TEG ACT parameter, distinguishing between concentrations” value is on record as “good dose response curve”; the “TMRTG parameter sensitivity to presence of drug” value is recorded as “sensitive to the presence”; the “TEG ACT parameter versus control group” value was “significantly different”. In addition, the “K parameter versus control” value with citrated whole blood (200 ng/mL and 50 ng/mL) is “statistically different from control”. Also, in the assay with citrated whole blood (500 ng/mL), the “K parameter versus control” value is listed as “not for the concentration of 500 ng/mL”. The “α parameter versus control” value in the assay with citrated whole blood (500 ng/mL and 50 ng/mL) is recorded as “statistically different from control”. For the same molecule, the “MA values versus control group” value in the assay with citrated whole blood (500 ng/mL, still within normal range) is recorded as “significantly different from the control group”. Further, the MRTG parameter sensitivity entry with citrated whole blood (500, 200, 50 ng/mL) is “sensitive to the two lowest concentrations”. For the same molecule, the “TMRTG parameter between concentrations” value in the assay with citrated whole blood (500 vs 200 ng/mL, 200 vs 50 ng/mL) is recorded as “able to differentiate between concentrations”. In the assay on citrated whole blood (500 vs 200 ng/mL, 500 vs 50 ng/mL), the “K and α parameters, highest concentration versus other concentrations” value was “able to differentiate”. Moreover, in the assay on citrated whole blood (all concentrations), the “ACT time versus non-spiked blood sample” value is “significantly higher”. The R-time following administration in the assay on porcine plasma was at least 21 ± 5.9 min.
